Reference: US20250243203A1, “NICOTINAMIDE- AND BENZAMIDE-BASED COMPOUNDS, CONJUGATES, AND COMPOSITIONS AS INHIBITORS OF TRANSLATIONAL- AND TRANSCRIPTIONAL-RELATED KINASES” (PURDUE RESEARCH FOUNDATION, priority 2022, published 2025)
Like-named read-outs stand apart in the source and are kept apart here. One block for each compound: values may come before it.

Key:
[1] = target: T1, AXL receptor tyrosine kinase (AXL) (Homo sapiens, UniProt P30530); assay: KINOMEscan competition binding assay (Eurofins DiscoverX), AXL
T1 construct: purchased Eurofins DiscoverX (KINOMEscan service)
T1 sequence (P30530 26-894): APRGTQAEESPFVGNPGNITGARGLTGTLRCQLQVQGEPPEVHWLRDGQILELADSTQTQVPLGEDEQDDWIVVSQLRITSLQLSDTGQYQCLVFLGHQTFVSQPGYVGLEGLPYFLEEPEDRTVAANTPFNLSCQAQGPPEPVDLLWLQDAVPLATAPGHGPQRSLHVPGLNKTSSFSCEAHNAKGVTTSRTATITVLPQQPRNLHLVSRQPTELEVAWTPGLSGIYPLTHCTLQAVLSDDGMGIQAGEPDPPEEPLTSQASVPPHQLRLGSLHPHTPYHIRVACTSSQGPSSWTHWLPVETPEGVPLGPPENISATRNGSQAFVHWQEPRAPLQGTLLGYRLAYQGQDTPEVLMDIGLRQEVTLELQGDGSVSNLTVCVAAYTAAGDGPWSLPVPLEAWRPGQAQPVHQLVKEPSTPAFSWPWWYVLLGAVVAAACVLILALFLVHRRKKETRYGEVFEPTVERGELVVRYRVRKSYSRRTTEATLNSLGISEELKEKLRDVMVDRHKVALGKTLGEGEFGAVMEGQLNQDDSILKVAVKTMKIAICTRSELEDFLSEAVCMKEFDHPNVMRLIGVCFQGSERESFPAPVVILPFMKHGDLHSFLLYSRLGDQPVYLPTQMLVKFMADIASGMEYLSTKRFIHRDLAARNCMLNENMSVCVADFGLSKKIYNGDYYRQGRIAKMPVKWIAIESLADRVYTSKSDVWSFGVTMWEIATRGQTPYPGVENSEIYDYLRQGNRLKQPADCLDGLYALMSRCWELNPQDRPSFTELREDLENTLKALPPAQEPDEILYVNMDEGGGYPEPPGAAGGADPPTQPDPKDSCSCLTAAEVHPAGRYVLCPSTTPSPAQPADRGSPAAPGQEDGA
Method: The affinity of several compounds hereof having a substituent on the imidazo[1,2-b]pyridazine moiety at position-6, wherein the substituent comprised one or more ring moieties was evaluated with respect to two TAM kinases: AXL and MERTK. […] The assay uses DNA-tagged kinase, an immobilized ligand, and the test compound. Quantitative polymerase chain reaction (PCR) of the DNT tag was then used to measure the ability of the tested compound to displace the immobilized ligand.

[2] = target: T2, MER Proto-Oncogene tyrosine kinase (MERTK) (Homo sapiens, UniProt Q12866); assay: KINOMEscan competition binding assay (Eurofins DiscoverX), MERTK
T2 construct: purchased Eurofins DiscoverX (KINOMEscan service)
T2 sequence (Q12866 21-999): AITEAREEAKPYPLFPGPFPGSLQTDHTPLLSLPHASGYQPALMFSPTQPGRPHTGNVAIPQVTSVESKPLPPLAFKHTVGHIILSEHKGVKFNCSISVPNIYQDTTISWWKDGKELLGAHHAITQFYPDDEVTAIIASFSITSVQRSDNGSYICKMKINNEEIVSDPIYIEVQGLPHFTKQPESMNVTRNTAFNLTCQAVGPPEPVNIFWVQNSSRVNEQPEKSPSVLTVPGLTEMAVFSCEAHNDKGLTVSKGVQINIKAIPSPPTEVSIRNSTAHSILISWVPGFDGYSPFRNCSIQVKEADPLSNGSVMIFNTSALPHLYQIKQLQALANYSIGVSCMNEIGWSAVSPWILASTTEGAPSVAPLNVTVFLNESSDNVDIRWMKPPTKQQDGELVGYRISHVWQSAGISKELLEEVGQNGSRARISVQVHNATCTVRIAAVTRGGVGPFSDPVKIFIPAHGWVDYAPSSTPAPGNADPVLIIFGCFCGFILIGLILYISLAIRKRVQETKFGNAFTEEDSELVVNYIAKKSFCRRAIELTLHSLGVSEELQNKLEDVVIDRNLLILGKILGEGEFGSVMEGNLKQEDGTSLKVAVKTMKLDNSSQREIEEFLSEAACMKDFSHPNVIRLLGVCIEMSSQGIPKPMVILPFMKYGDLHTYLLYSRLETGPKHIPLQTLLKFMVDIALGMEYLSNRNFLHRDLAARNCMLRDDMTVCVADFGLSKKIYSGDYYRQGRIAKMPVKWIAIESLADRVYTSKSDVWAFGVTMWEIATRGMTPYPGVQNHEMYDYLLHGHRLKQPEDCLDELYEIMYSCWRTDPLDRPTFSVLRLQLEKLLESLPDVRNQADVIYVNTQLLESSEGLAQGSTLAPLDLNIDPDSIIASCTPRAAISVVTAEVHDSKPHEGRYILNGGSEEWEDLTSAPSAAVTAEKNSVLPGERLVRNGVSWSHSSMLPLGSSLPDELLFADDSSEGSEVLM
Method: The affinity of several compounds hereof having a substituent on the imidazo[1,2-b]pyridazine moiety at position-6, wherein the substituent comprised one or more ring moieties was evaluated with respect to two TAM kinases: AXL and MERTK. Perhaps more specifically, the equilibrium dissociation constant between each of compounds HSND141, compound HSND149, HSND150, HSND151, and HSND80 and AXL and MERTK was evaluated at Eurofins DiscoverX using KINOMEscan™, which is a competition binding assay that quantitively measured the ability of each tested compound to displace an immobilized, active-site directed ligand. The assay uses DNA-tagged kinase, an immobilized ligand, and the test compound. Quantitative polymerase chain reaction (PCR) of the DNT tag was then used to measure the ability of the tested compound to displace the immobilized ligand.

[3] = system: MDA-MB-231 (breast cancer); assay: Growth inhibition of MDA-MB-231 (NCI-60 human tumor cell line screen); type: cell-based; settings: NCI-60 screening
[4] = system: CT-26 C2 tumor cells; assay: CT-26 in vivo tumor reduction; parameters: species or system BALB/c female mouse; settings: CT-26, day 17 from start of dosing, oral QD
Method: Each BALB/c female mouse was inoculated subcutaneously at the right flank with CT-26 C2 tumor cells (0.3×10^6/mouse) in 0.1 mL PBS for tumor development. Treatments for the efficacy study were started on day 10 after tumor inoculation when the average tumor size reached approximately 71 mm^3. Each group consisted of 6 tumor-bearing mice. Vehicle control was 25 mM citrate buffer (pH 2.5). HSND80 was dosed orally QD at 15 mg/Kg for 4 days and 10 mg/Kg afterwards. HSND100 was dosed at 15 mg/Kg. Mice were dosed 5 days on and 2 days off (drug holiday). Tumors were measured every other day (L, W, H) to give tumor volume in mm^3.

[5] = target: p70S6K (Homo sapiens, UniProt P23443); assay: p70S6K inhibition, in vitro studies at Reaction Biology Corporation; type: biochemical; settings: 25 nM compound, [ATP]=10 uM
Chain of p70S6K (P23443 whole entry): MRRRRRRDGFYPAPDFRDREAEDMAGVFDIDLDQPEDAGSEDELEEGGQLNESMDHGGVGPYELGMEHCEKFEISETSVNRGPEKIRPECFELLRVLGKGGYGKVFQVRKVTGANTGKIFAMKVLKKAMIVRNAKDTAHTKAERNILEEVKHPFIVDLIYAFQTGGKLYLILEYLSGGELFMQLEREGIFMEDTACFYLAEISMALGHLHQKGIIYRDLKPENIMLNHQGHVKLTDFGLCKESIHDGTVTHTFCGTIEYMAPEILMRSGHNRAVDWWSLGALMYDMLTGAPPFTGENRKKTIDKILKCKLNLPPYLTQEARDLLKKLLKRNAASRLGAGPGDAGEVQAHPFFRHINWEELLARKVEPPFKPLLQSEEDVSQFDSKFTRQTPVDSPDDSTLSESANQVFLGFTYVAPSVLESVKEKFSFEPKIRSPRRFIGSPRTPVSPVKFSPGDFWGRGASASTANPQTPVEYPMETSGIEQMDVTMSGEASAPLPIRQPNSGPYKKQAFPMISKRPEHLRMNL
Method: The nature of the substituent on the imidazo[1,2-b]pyridazine moiety at position-6 was evaluated in in vitro studies performed at Reaction Biology Corporation (Malvern, PA). The results indicated the specific substituent dramatically affected the inhibition of p70S6K.

[6] = target: MNK2 (Homo sapiens, UniProt Q9HBH9); assay: MNK2 inhibition, in vitro studies at Reaction Biology Corporation; type: biochemical; settings: 50 nM compound, 10 uM ATP
Chain of MNK2 (Q9HBH9 whole entry): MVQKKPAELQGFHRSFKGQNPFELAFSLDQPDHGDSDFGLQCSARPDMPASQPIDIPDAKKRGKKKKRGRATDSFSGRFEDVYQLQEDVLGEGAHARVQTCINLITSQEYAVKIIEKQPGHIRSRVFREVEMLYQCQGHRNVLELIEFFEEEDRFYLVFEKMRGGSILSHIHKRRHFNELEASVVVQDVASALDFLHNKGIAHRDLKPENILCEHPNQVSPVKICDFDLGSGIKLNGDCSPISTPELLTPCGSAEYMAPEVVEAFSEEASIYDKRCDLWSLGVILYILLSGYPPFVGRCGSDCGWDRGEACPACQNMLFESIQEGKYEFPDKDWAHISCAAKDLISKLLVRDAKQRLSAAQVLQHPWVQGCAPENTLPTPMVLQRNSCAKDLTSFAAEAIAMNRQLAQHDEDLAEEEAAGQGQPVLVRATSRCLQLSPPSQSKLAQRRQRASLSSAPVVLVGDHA

[7] = patients on ponatinib; cited from earlier work
[8] = Table 1, DiscoverX Eurofins, read-out: Kd AXL
[9] = Table 1, DiscoverX Eurofins, read-out: Kd MERTK

Compound: CN1CCN(Cc2ccc(NC(=O)c3cncc(C#Cc4cnc5ccc(N6C7CCC6COC7)nn45)c3)cc2C(F)(F)F)CC1 [HSND141, 5-((6-(3-Oxa-8-azabicyclo[3.2.1]octan-8-yl)imidazo[1,2-b]pyridazin-3-yl)ethynyl)-N-(4-((4-methylpiperazin-1-yl)methyl)-3-(trifluoromethyl)phenyl)nicotinamide]
Kd [1]: 1.2 nM
Kd [2]: 0.22 nM

Compound: CN(C)CCN(C)c1ccc2ncc(C#Cc3cncc(C(=O)Nc4ccc(CN5CCN(C)CC5)c(C(F)(F)F)c4)c3)n2n1 [HSND40, 5-((6-((2-(Dimethylamino)ethyl)(methyl)amino)imidazo[1,2-b]pyridazin-3-yl)ethynyl)-N-(4-((4-methylpiperazin-1-yl)methyl)-3-(trifluoromethyl)phenyl)nicotinamide]
GI50 [3]: 889 nM

Compound: CC1CN(c2ccc3ncc(C#Cc4cncc(C(=O)Nc5ccc(CN6CCN(C)CC6)c(C(F)(F)F)c5)c4)n3n2)C[C@@H](C)O1 (stereo in doubt) [HSND100, 5-((6-((2R,6R)-2,6-Dimethylmorpholino)imidazo[1,2-b]pyridazin-3-yl)ethynyl)-N-(4-((4-methylpiperazin-1-yl)methyl)-3-(trifluoromethyl)phenyl)nicotinamide]
tumor reduction compared to vehicle control [4]: 36%

Kd [1, 8]: 3.3 nM
Kd [2, 9]: < 0.17 nM
Compound: CN1CCN(Cc2ccc(NC(=O)c3cncc(C#Cc4cnc5ccc(N6C[C@@H]7C[C@H]6CO7)nn45)c3)cc2C(F)(F)F)CC1 [HSND151, 5-((6-((1S,4S)-2-Oxa-5-azabicyclo[2.2.1]heptan-5-yl)imidazo[1,2-b]pyridazin-3-yl)ethynyl)-N-(4-((4-methylpiperazin-1-yl)methyl)-3-(trifluoromethyl)phenyl)nicotinamide]

inhibition of p70S6K [5]: 95%
inhibition at 0.05 µM [6]: 92%
Compound: CN1CCN(Cc2ccc(NC(=O)c3cncc(C#Cc4cnc5ccc(N6CCN(C)CC6)nn45)c3)cc2C(F)(F)F)CC1 [HSND77, 5-((6-(4-Methylpiperazin-1-yl)imidazo[1,2-b]pyridazin-3-yl)ethynyl)-N-(4-((4-methylpiperazin-1-yl)methyl)-3-(trifluoromethyl)phenyl)nicotinamide]

Compound: Cc1ccc(C(=O)Nc2ccc(CN3CCN(C)CC3)c(C(F)(F)F)c2)cc1C#Cc1cnc2cccnn12 [ponatinib, Ponatinib, reference compound]
inhibition of p70S6K [5]: 38%
patients developing some form of thrombosis [7]: about 40%

Compound: CN1CCN(Cc2ccc(NC(=O)c3cncc(C#Cc4cnc5ccc(N6CCOCC6)nn45)c3)cc2C(F)(F)F)CC1 [HSND41, N-(4-((4-Methylpiperazin-1-yl)methyl)-3-(trifluoromethyl)phenyl)-5-((6-morpholinoimidazo[1,2-b]pyridazin-3-yl)ethynyl)nicotinamide]
GI50 [3]: 35 nM

inhibition of p70S6K [5]: 95%
inhibition at 0.05 µM [6]: 94%
Compound: CN1CCN(Cc2ccc(NC(=O)c3cncc(C#Cc4cnc5ccc(N6CCSCC6)nn45)c3)cc2C(F)(F)F)CC1 [HSND79, N-(4-((4-Methylpiperazin-1-yl)methyl)-3-(trifluoromethyl)phenyl)-5-((6-thiomorpholinoimidazo[1,2-b]pyridazin-3-yl)ethynyl)nicotinamide]

Kd [1, 8]: 2.8 nM
Kd [2, 9]: < 0.17 nM
Compound: CN1CCN(Cc2ccc(NC(=O)c3cncc(C#Cc4cnc5ccc(N6C[C@H]7C[C@@H]6CO7)nn45)c3)cc2C(F)(F)F)CC1 [HSND150, 5-((6-((1R,4R)-2-Oxa-5-azabicyclo[2.2.1]heptan-5-yl)imidazo[1,2-b]pyridazin-3-yl)ethynyl)-N-(4-((4-methylpiperazin-1-yl)methyl)-3-(trifluoromethyl)phenyl)nicotinamide]

Compound: CN(C)CCNc1ccc2ncc(C#Cc3cncc(C(=O)Nc4ccc(CN5CCN(C)CC5)c(C(F)(F)F)c4)c3)n2n1 [HSND39, 5-((6-((2-(Dimethylamino)ethyl)amino)imidazo[1,2-b]pyridazin-3-yl)ethynyl)-N-(4-((4-methylpiperazin-1-yl)methyl)-3-(trifluoromethyl)phenyl)nicotinamide]
GI50 [3]: 571 nM

Compound: CN1CCN(Cc2ccc(NC(=O)c3cncc(C#Cc4cnc5ccc(N)nn45)c3)cc2C(F)(F)F)CC1 [HSND37, 5-((6-Aminoimidazo[1,2-b]pyridazin-3-yl)ethynyl)-N-(4-((4-methylpiperazin-1-yl)methyl)-3-(trifluoromethyl)phenyl)nicotinamide]
GI50 [3]: 413 nM

Kd [1, 8]: 3.7 nM
Kd [2, 9]: 0.2 nM
Compound: CN1CCN(Cc2ccc(NC(=O)c3cncc(C#Cc4cnc5ccc(N6CC7(COC7)C6)nn45)c3)cc2C(F)(F)F)CC1 [HSND149, 5-((6-(2-Oxa-6-azaspiro[3.3]heptan-6-yl)imidazo[1,2-b]pyridazin-3-yl)ethynyl)-N-(4-((4-methylpiperazin-1-yl)methyl)-3-(trifluoromethyl)phenyl)nicotinamide]
